According to publication PMC3692398 (Biochemical pharmacology, 2013):

Assays:
h5-HT2C receptor [1] = target: T1, h5-HT2C receptor (Homo sapiens, UniProt P28335); assay: Inhibition of 5-HT-stimulated IP-1 formation; assay type: cell-based
T1 sequence (P28335 33-458): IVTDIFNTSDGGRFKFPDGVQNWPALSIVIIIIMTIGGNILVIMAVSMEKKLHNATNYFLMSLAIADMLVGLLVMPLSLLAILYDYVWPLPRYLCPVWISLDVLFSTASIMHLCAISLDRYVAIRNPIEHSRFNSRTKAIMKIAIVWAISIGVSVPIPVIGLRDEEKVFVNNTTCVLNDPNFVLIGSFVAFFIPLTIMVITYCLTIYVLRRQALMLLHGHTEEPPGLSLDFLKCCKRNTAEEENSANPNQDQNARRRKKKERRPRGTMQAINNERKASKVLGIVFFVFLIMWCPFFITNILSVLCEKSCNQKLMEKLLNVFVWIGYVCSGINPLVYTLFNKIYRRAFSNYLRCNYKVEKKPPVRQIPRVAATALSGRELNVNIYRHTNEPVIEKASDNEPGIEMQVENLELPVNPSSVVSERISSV

h5-HT2C receptor [2] = target: T1, h5-HT2C receptor; assay: biochemical; assay type: binding
human DA D1 receptor = human DA D1 receptor (Homo sapiens, UniProt P21728); assay: [3H]SCH23390 binding, LhD1 cells; details: test drugs up to the maximal concentration tested (10 µM)
hVMAT2 [3] = target: T2, hVMAT2 (Homo sapiens, UniProt Q05940); assay: Inhibition of [3H]DHTB binding, HEK-hVMAT2 membranes; details: read-out: Inhibition of [3H]DHTB binding Ki ± sem, hVMAT2
hVMAT2 [4] = target: T2, hVMAT2; assay: Inhibition of [3H]5-HT uptake, HEK-hVMAT2 membrane preparation; assay type: biochemical; details: read-out: Inhibition of [3H]5-HT uptake IC50 ± sem, hVMAT2; 40 nM [3H]5-HT, 2 mM MgATP
hSigma1 receptor = hSigma1 receptor (Homo sapiens, UniProt Q99720); assay: [3H]; assay type: binding; details: Inhibition of [3H]pentazocine binding Ki ± sem, hSigma1
hSigma1 receptor, sequence (Q99720 whole entry): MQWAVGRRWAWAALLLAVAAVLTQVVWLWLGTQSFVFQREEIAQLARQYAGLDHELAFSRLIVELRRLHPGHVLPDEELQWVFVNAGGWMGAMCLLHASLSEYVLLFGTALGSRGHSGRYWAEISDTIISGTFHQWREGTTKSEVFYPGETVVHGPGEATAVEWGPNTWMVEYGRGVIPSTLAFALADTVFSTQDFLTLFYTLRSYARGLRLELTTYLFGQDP

T2 sequence (Q05940 whole entry): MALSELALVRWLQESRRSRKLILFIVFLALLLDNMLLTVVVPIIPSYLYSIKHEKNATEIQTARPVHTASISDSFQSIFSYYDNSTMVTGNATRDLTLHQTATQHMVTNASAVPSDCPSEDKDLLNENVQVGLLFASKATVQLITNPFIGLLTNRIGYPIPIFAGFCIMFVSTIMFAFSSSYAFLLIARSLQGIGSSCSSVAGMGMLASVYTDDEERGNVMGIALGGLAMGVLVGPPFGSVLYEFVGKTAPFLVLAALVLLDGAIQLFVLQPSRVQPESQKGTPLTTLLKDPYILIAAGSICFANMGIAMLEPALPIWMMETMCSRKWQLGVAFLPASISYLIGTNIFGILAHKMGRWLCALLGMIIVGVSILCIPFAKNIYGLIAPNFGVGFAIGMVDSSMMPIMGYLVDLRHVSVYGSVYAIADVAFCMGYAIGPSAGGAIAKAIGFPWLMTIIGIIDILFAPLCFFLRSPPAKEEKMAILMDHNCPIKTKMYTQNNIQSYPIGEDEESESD
human DA D1 receptor, sequence (P21728 whole entry): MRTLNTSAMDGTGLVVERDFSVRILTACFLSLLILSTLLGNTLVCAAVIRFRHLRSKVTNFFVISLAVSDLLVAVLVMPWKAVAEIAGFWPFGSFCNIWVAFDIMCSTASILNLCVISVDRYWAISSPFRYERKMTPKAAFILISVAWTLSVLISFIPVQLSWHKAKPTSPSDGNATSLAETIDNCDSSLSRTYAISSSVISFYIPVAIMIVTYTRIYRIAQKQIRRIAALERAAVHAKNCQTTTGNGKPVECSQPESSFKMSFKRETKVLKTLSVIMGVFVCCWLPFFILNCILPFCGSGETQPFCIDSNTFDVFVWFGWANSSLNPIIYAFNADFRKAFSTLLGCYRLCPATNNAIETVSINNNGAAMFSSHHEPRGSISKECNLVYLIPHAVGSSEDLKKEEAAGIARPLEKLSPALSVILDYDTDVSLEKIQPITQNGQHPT

`Cc1cc2c(cc1Cl)N(C(=O)Nc1ccc(Oc3cccnc3C)nc1)CC2` [SB242084, reference compound] gave an IC50 (h5-HT2C receptor [1]) of 0.28 ± 0.12 nM and a Ki (h5-HT2C receptor [2]) of 2.47 nM.
`Oc1cc2c(cc1O)C(c1ccccc1)CNCC2` (stereo not shown) [SKF38393] was tested, and the “affinity for the [3H]SCH23390 binding site, DA D1 receptor” value (human DA D1 receptor) was “high affinity”.
Work on `CCC1(O)CC2c3cc(OC)c(OC)cc3CCN2CC1CC(C)C` [RO4-1284, (2R,2S,11bs)-2-ethyl-3-isobutyl-9,10-dimethoxy-2,2,4,6,7,11b-hexahydro-1H-pyrido[2,1-a]isoquinolin-2-ol, reference compound] yielded a Ki (hVMAT2 [3]) of 150 ± 15 nM and an IC50 (hVMAT2 [4]) of 98 ± 32 nM.
Compound `O=C(CCCN1CCC2(CC1)C(=O)NCN2c1ccccc1)c1ccc(F)cc1` [Spiperone, reference compound] has a Ki (hSigma1 receptor) of 1310 ± 240 nM.
`COc1cc(CC(C)N)c(OC)cc1I` (racemic) [[^125I]DOI, (±)-1-(2,5,-dimethoxy-4-iodophenyl)-2-aminopropane, reference compound] showed a Kd (h5-HT2C receptor [2]; read-out: Kd of radioligand, HEK-H5HT2C) of 4.18 ± 0.46 nM.
